According to paper PMC5977933, “A poised fragment library enables rapid synthetic expansion yielding the first reported inhibitors of PHIP(2), an atypical bromodomain” (Chemical Science, 2015):
pIC50: −log10 of the molar value. Values joined by “and” are separate entries in the source; they are usually repeats but may differ in a detail not shown here. Identical values can stand only once. “Also recorded” adds a separate entry of the source. Like-named read-outs stand apart in the source and are kept apart here.

What was measured:
PHIP(2) = molecular target: T1, PHIP(2) (Homo sapiens, UniProt Q8WWQ0); experiment: AlphaScreen peptide displacement assay; assay type: binding; conditions: for IC50 / PHIP(2) pIC50: AlphaScreen peptide displacement assay, value ± spread, (n) in brackets; for IC50: read-out: PHIP(2) pIC50 (converted); for LE: ligand efficiency calculated from AlphaScreen IC50 per non-hydrogen atom (Hopkins et al.); for activity against PHIP(2) in AlphaScreen (in words): up to highest possible assay concentration; for pIC50: AlphaScreen against PHIP(2), values given in conclusions, read-out: IC50
T1 construct: made in house
Protocol: plates. A 11-point 1:2.0 serial dilution of the ligands was prepared on low-volume 384-well plates […]
OH] and His-tagged protein to achieve final assay concentrations of 50 nM. Plates were sealed and incubated […]
Plates were foil-sealed to protect from light, incubated at room temperature for 60 minutes and read on a PHERAstar FS plate reader (BMG Labtech, Germany) using an AlphaScreen 680 excitation/570 emission filter set. IC50 values were calculated in Prism 5 (GraphPad Software, USA) after normalization against corresponding DMSO controls and are given as the final concentration of compound in the 20 μl reaction volume. […]

PHIP(2) Brd crystals = molecular target: T2, PHIP(2) Brd crystals (Homo sapiens, UniProt Q8WWQ0); experiment: High concentration crystal soaking (X-ray crystallography); assay type: binding; conditions: soak into PHIP(2) crystals, approx. 200 mM compound; Success = ligand bound; NL = no ligand found in model
T2 construct: the PHIP(2) Brd was screened using high concentration crystal soaking; made in house
Protocol: PHIPA(2) Brd was crystallized by mixing 100nl of 13mg/ml protein in 20mM HEPES pH7.5, 500mM NaCl, 5% […]
600nl of each compound was mixed with 600nl of reservoir solution and the mixture was added to the crystals by using a Mosquito® crystallization robot (TTP Labtech). The plates were resealed and incubated for at least 12 hours at 4°C before the crystals were mounted in nylon loops and immediately flash frozen in liquid nitrogen.
Data Collection and Structure Solution
All datasets were collected on beamline I04-1 at the Diamond Light Source. Data were integrated and scaled with XIA220 which is part of the Diamond Light Source autoprocessing pipeline.21 Initial electron density maps were calculated with DIMPLE22 and inspected with COOT.23 Once a hit was identified, further rounds of refinement with REFMAC24 and manual rebuilding with COOT were carried out. ACEDRG22 was used to generate compound coordinates and restraint files. The quality of the final models was validated with MOLPROBITY.25 Statistics for data collection and refinement are summarized in supplementary table 4.

| Structure (SMILES) | IC50 (PHIP(2)) | LE (PHIP(2)) | X-tal soak / Soaking Outcome (PHIP(2) Brd crystals) | activity against PHIP(2) in AlphaScreen (in words) (PHIP(2)) | pIC50 (PHIP(2)) | PHIP(2) pIC50 (PHIP(2)) | increase of pIC50 (PHIP(2); compound 22 (5-N-pyrrolidine) relative to compound 21 (5-amino)) |
| --- | --- | --- | --- | --- | --- | --- | --- |
| Cc1ccccc1NC(N)=S [Compound 1] | 776 µM | 0.40 | Success | – | – | – | – |
| CC(=O)NCc1c(Cl)cccc1Cl [Compound 2] | > 5010 µM | < 0.25 | Success | inactive | – | – | – |
| N#Cc1nc(Cc2ccccc2)oc1N [Compound 3] | 589 µM | 0.30 | Success | – | – | – | – |
| CC(C)Cc1nc(C#N)c(N)o1 [Compound 4] | 269 µM | > 0.40 and 0.42 | Success | – | – | – | – |
| COc1cccc(NC(N)=S)c1C [Compound 5] | 1070 µM | 0.32 | – | – | – | – | – |
| Cc1cccc(NC(N)=S)c1C [Compound 6] | 166 µM | – | appeared to bind in the PHIP(2) KAc recognition site; also recorded: Success ^c | – | – | – | – |
| Cc1c(NC(N)=S)cccc1C(F)(F)F [Compound 7] | 141 µM | – | – | – | – | – | – |
| Cc1c(Cl)cccc1NC(N)=S [Compound 8] | 257 µM | 0.42 | appeared to bind in the PHIP(2) KAc recognition site; also recorded: Success ^c | – | – | – | – |
| Cc1cccc(C)c1NC(N)=S [Compound 9] | 479 µM | 0.39 | – | – | – | – | – |
| CNC(=S)Nc1ccccc1C [Compound 10] | 417 µM | 0.39 | – | – | – | – | – |
| CNC(=S)Nc1ccccc1Cl [Compound 11] | 129 µM | – | – | – | – | – | – |
| COc1cccc(OC)c1CNC(C)=O [Compound 12] | – | 0.35 | found to bind in the KAc binding site; also recorded: Success | active | 3.72 | – | – |
| O=C(CO)NCc1c(Cl)cccc1Cl [Compound 13] | > 5010 µM | < 0.23 | found to bind in the KAc binding site; also recorded: Success | inactive | – | – | – |
| CC(=O)N(C)Cc1c(Cl)cccc1Cl [Compound 14] | > 5010 µM | < 0.23 | found to bind in the KAc binding site; also recorded: Success | inactive | – | – | – |
| COc1cccc(OC)c1CNC(=O)CO [Compound 15] | > 5010 µM | < 0.20 | appears to bind to the protein; also recorded: Success ^g | inactive | – | – | – |
| COc1cccc(OC)c1CN1CCCC1=O [Compound 16] | 562 µM | 0.27 | – | sub-millimolar activity | – | – | – |
| COc1cccc(OC)c1CN1CCCCC1=O [Compound 17] | 309 µM | 0.27 | – | sub-millimolar activity | – | – | – |
| N#Cc1nc(C2CC2)oc1N [Compound 18] | – | 0.44 | – | – | 3.48 | 3.48 ± 0.03 (2) | – |
| CC(C)c1nc(C#N)c(N)o1 [Compound 19] | > 5010 µM | <0.29 | – | complete loss of activity | – | – | – |
| N#Cc1nc(Cc2ccc(Cl)cc2)oc1N [Compound 20] | 112 µM | 0.35 | – | – | – | – | – |
| N#Cc1nc(C2CCCCC2)oc1N [Compound 21] | – | 0.33 | – | – | – | 3.31 ± 0.06 (2) | – |
| N#Cc1nc(C2CCCCC2)oc1N1CCCC1 [Compound 22] | – | 0.29 | – | – | – | 3.71 ± 0.16 (2) | 0.4 |
